Common to all, as to assay: relative viability (nuclei count vs DMSO), 5 days (fraction); higher = more cells survive
Compound in the assay “Salubrinal + Palbociclib”: O=C(/C=C/c1ccccc1)NC(NC(=S)Nc1cccc2cccnc12)C(Cl)(Cl)Cl [Salubrinal] + CC(=O)c1c(C)c2cnc(Nc3ccc(N4CCNCC4)cn3)nc2n(C2CCCC2)c1=O [Palbociclib] (partner 0.5 µM)
The method, boiled down: (§1)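 Relative viability is defined as nuclei in treated wells over nuclei in vehicle wells. Duplicate plates were run and medians reported. Lung cancer cell lines in 1536-well plates were dosed by pin tool one day after seeding, with one drug or with a fixed anchor-drug dose plus five library-drug doses (not always all listed) in √10 steps, and nuclei were counted after 5 days.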

Compound in the assay “Salubrinal + Tozasertib”: O=C(/C=C/c1ccccc1)NC(NC(=S)Nc1cccc2cccnc12)C(Cl)(Cl)Cl [Salubrinal] + Cc1cc(Nc2cc(N3CCN(C)CC3)nc(Sc3ccc(NC(=O)C4CC4)cc3)n2)n[nH]1 [Tozasertib] (partner 0.1 µM)
The method, boiled down:
as §1

Compound in the assay “Salubrinal + Alpelisib”: O=C(/C=C/c1ccccc1)NC(NC(=S)Nc1cccc2cccnc12)C(Cl)(Cl)Cl [Salubrinal] + Cc1nc(NC(=O)N2CCC[C@H]2C(N)=O)sc1-c1ccnc(C(C)(C)C(F)(F)F)c1 [Alpelisib] (partner 2 µM)
The method, boiled down: as §1

Compound in the assay “Salubrinal + Phenformin”: O=C(/C=C/c1ccccc1)NC(NC(=S)Nc1cccc2cccnc12)C(Cl)(Cl)Cl [Salubrinal] + N=C(N)NC(=N)NCCc1ccccc1 [Phenformin] (partner 250 µM)
The method, boiled down: as §1

Turning to LK-2, the relative viability came out at 0.708 with Salubrinal + Palbociclib (first compound 0.08 µM); 0.781 in the assay with Salubrinal + Palbociclib (first compound 0.253 µM); 0.683 with Salubrinal + Palbociclib (first compound 0.8 µM); 0.597 with Salubrinal + Palbociclib (first compound 2.53 µM); 0.788 with Salubrinal + Palbociclib (first compound 8 µM); 0.158 with Salubrinal + Tozasertib (first compound 0.08 µM). The relative viability with Salubrinal + Tozasertib (first compound 0.253 µM) amounted to 0.197; with Salubrinal + Tozasertib (first compound 0.8 µM), 0.178; with Salubrinal + Tozasertib (first compound 2.53 µM), 0.198; with Salubrinal + Tozasertib (first compound 8 µM) it was 0.176; with Salubrinal + Alpelisib (first compound 0.08 µM), 1.33; in the assay with Salubrinal + Alpelisib (first compound 0.253 µM), 1.07. Besides, the relative viability in the assay with Salubrinal + Alpelisib (first compound 0.8 µM) was determined as 1.23; in the assay with Salubrinal + Alpelisib (first compound 2.53 µM), 1.19; in the assay with Salubrinal + Alpelisib (first compound 8 µM), 1.08; in the assay with Salubrinal + Phenformin (first compound 0.08 µM) it was 0.502; with Salubrinal + Phenformin (first compound 0.253 µM), 0.466; in the assay with Salubrinal + Phenformin (first compound 0.8 µM), 0.675. The relative viability was 0.3 with Salubrinal + Phenformin (first compound 2.53 µM) and 0.395 with Salubrinal + Phenformin (first compound 8 µM).

In the case of NCI-H322M, the relative viability was found to be 0.528 in the assay with Salubrinal + Palbociclib (first compound 0.08 µM); 0.445 with Salubrinal + Palbociclib (first compound 0.253 µM); 0.547 with Salubrinal + Palbociclib (first compound 0.8 µM); 0.483 with Salubrinal + Palbociclib (first compound 2.53 µM); 0.518 in the assay with Salubrinal + Palbociclib (first compound 8 µM); 0.511 with Salubrinal + Tozasertib (first compound 0.08 µM). The relative viability was determined as 0.445 with Salubrinal + Tozasertib (first compound 0.253 µM); 0.479 with Salubrinal + Tozasertib (first compound 0.8 µM); 0.44 in the assay with Salubrinal + Tozasertib (first compound 2.53 µM); 0.469 with Salubrinal + Tozasertib (first compound 8 µM); 0.783 with Salubrinal + Alpelisib (first compound 0.08 µM); 0.849 with Salubrinal + Alpelisib (first compound 0.253 µM). The relative viability was 0.863 with Salubrinal + Alpelisib (first compound 0.8 µM); 0.788 in the assay with Salubrinal + Alpelisib (first compound 2.53 µM); 0.739 with Salubrinal + Alpelisib (first compound 8 µM); 0.783 with Salubrinal + Phenformin (first compound 0.08 µM); 0.725 with Salubrinal + Phenformin (first compound 0.253 µM); 0.929 with Salubrinal + Phenformin (first compound 0.8 µM). Also, the values for the relative viability with Salubrinal + Phenformin (first compound 2.53 µM) and with Salubrinal + Phenformin (first compound 8 µM) were 0.769 and 0.678, respectively.

On to NCI-H520, for which the relative viability worked out at 0.25 in the assay with Salubrinal + Palbociclib (first compound 0.08 µM); 0.225 with Salubrinal + Palbociclib (first compound 0.253 µM); 0.23 in the assay with Salubrinal + Palbociclib (first compound 0.8 µM); 0.21 in the assay with Salubrinal + Palbociclib (first compound 2.53 µM); 0.271 in the assay with Salubrinal + Palbociclib (first compound 8 µM); 0.501 with Salubrinal + Tozasertib (first compound 0.08 µM). Besides, the relative viability with Salubrinal + Tozasertib (first compound 0.253 µM) is 0.446; with Salubrinal + Tozasertib (first compound 0.8 µM) it was 0.44; with Salubrinal + Tozasertib (first compound 2.53 µM), 0.403; with Salubrinal + Tozasertib (first compound 8 µM), 0.469; with Salubrinal + Alpelisib (first compound 0.08 µM), 0.904; with Salubrinal + Alpelisib (first compound 0.253 µM), 0.578. For the same cell line, the relative viability in the assay with Salubrinal + Alpelisib (first compound 0.8 µM) is 1.18; with Salubrinal + Alpelisib (first compound 2.53 µM), 0.878; with Salubrinal + Alpelisib (first compound 8 µM), 0.949; with Salubrinal + Phenformin (first compound 0.08 µM), 0.56; in the assay with Salubrinal + Phenformin (first compound 0.253 µM), 0.556; with Salubrinal + Phenformin (first compound 0.8 µM), 0.831. Further, the relative viability amounted to 0.646 in the assay with Salubrinal + Phenformin (first compound 2.53 µM) and 0.54 with Salubrinal + Phenformin (first compound 8 µM).

For ABC-1, the relative viability stood at 0.692 with Salubrinal + Palbociclib (first compound 0.08 µM); 0.576 in the assay with Salubrinal + Palbociclib (first compound 0.253 µM); 0.836 in the assay with Salubrinal + Palbociclib (first compound 0.8 µM); 0.547 with Salubrinal + Palbociclib (first compound 2.53 µM); 0.664 with Salubrinal + Palbociclib (first compound 8 µM); 0.168 with Salubrinal + Tozasertib (first compound 0.08 µM). The relative viability with Salubrinal + Tozasertib (first compound 0.253 µM) is 0.185; in the assay with Salubrinal + Tozasertib (first compound 0.8 µM), 0.194; in the assay with Salubrinal + Tozasertib (first compound 2.53 µM), 0.183; with Salubrinal + Tozasertib (first compound 8 µM), 0.206; with Salubrinal + Alpelisib (first compound 0.08 µM) it was 1; in the assay with Salubrinal + Alpelisib (first compound 0.253 µM), 0.952. For the same cell line, the relative viability with Salubrinal + Alpelisib (first compound 0.8 µM) amounted to 1.2; with Salubrinal + Alpelisib (first compound 2.53 µM), 1; with Salubrinal + Alpelisib (first compound 8 µM), 1.12; with Salubrinal + Phenformin (first compound 0.08 µM), 0.225; with Salubrinal + Phenformin (first compound 0.253 µM) it was 0.268; in the assay with Salubrinal + Phenformin (first compound 0.8 µM), 0.281. The relative viability was 0.214 with Salubrinal + Phenformin (first compound 2.53 µM) and 0.24 with Salubrinal + Phenformin (first compound 8 µM).

The values above are taken from the supplement of paper PMC10307832.
